From publication PMC11121450, “Evaluation of the Inhibitory Potential of Synthetic Peptides Homologous to CDR3 Regions of a Monoclonal Antibody against Bothropic Venom Serine Proteases” (International Journal of Molecular Sciences, 2024)
Residues, ends and D or L forms follow the SMILES beside them. No end group written: not given here.

Assays:
[1] = test system: B. jararaca and B. atrox venoms; format: in vitro ADME, Bothrops jararaca; Bothrops atrox; details: incubation with B. jararaca and B. atrox venoms (0.1 µg of both venoms per table footnote; 90 ng and 20 ng per method), 50 µM peptide, 4 h, 37 °C, 100 mM Tris HCl, 20 mM NaCl, pH 7.4; RP-HPLC C-18, UV 214 nm; relative to β-chain of insulin
Protocol: To verify the stability of the synthetic peptides, they were incubated with both venoms, and tests were performed using reverse-phase liquid chromatography on a C-18 column. […] As a positive control, the β-chain of insulin was used, which is known to be a substrate for the SVSPs and SVMPs of bothropic venoms.
With the aim of verifying the possible hydrolysis of peptides by the studied venoms, the samples were prepared in 100 mM Tris-HCl, 20 mM NaCl, pH 7.4, final volume 100 µL, using 50 µM of each synthetic peptide, incubating them separately with the venoms of B. jararaca (90 ng) and B. atrox (20 ng) for 4 h at 37 °C, the same concentrations used in the enzymatic assays. A solution containing the β-chain of insulin (50 µM) was used as a positive control since it is a described substrate for SVSP from both venoms. The conditions for the HPLC (Shimadzu Prominence) analysis used 0.1% trifluoroacetic acid (TFA) in water (solvent A), and acetonitrile (ACN) and solvent A (9:1) as solvent B. The analyses occurred at a flow rate of 1 mL/min using a C-18 column (Shim-pack VP-ODS4.6 x 150 mm) and a gradient of 20–60% solvent B for 20 min. In all cases, 50 µL of each sample was injected and the absorbance was monitored at 214 nm.

[2] = biological target: human thrombin (Homo sapiens, UniProt P00734); test: Inhibition of human thrombin, Abz-FRSSRQ-EDDnp substrate; format: biochemical; details: for Ki: Dixon plot, three peptide concentrations including zero, thrombin 300 ng/µL, Abz-FRSSRQ-EDDnp substrate, read-out: inhibition constant (Ki) against human thrombin; for reduction of hydrolytic activity of thrombin: peptide 100 µM, 300 ng human thrombin, Abz-FRSSRQ-EDDnp 5 µM, 100 mM Tris-HCl, 20 mM NaCl, pH 7.4, 37 °C, quadruplicate
Protocol: Figure 8 Inhibitory activity assay against human thrombin (panel A), trypsin (panel B), and elastase-1 (panel C). The experiments were performed in a fluorimeter (Hidex 425-301, Turku, Finland), with readings adjusted for excitation and emission at 320 and 420 nm using Abz-FRSSRQ-EDDnp as a substrate. Assays were performed in quadruplicate, in Tris-HCl 50 mM, pH 8.0 (for trypsin and elastase-1 assays), and 100 mM Tris-HCl, 20 mM NaCl, pH 7.4, for human thrombin at 37 °C, using 1.7 ng/µL of trypsin, 300 ng/µL of human thrombin, and 300 ng of elastase-1. […] Panel (B): For these assays, the peptides were used at 100 µM, and CDR3 A and CDR3 E inhibited the substrate hydrolysis by thrombin by 34% and 100%, respectively. […] (****) p < 0.0001.
With the obtained velocities, curves were plotted on the Dixon plot (1/V versus [I]) (Figure 9).
Lines indicate a competitive mechanism of action. Kis of 61.77 µM (CDR3 A) and 55.75 (CDR3 E) were obtained. For the construction of the graph, the software GraphPad Prism 8 was used.
(§1) To verify the selective inhibition of the SVTLE by the peptides, it was necessary to perform experiments with other serine proteases of physiological relevance. For this, the possible inhibition of elastase-1 (EC 3.4.21.36), trypsin (EC 3.4.21.4), and human thrombin (EC 3.4.21.5) was analyzed. The evaluation of enzyme activities was performed as described above. The activities were assessed in 50 mM Tris-HCl, pH 8, for trypsin; Tris-HCl 50 mM, NaCl 50 mM, pH 8, for elastase-1; and 100 mM Tris-HCl, 20 mM NaCl, pH 7.4, for human thrombin (final volume of 100 µL), using 96-well plates (Corning) and the substrate Abz-FRSSRQ-EDDnp (5 µM). All reactions occurred at 37 °C using 1.7 ng of trypsin, 300 ng of human thrombin, and 300 ng of elastase-1. Assays were performed on a Hidex fluorimeter (425-301 Hidex, Turku, Finland), with the excitation and emission of fluorescence fixed at 320 and 420 nm, respectively. The trypsin and elastase-1 assays were performed using 20 µM of each peptide, and the human thrombin assays were performed using 100 µM. The readings occurred over 15 min at 1 min intervals. The experiments were performed in quadruplicate.

[3] = biological target: elastase-1 (EC 3.4.21.36) (Sus scrofa, UniProt P00772); test: Inhibition of elastase-1, Abz-FRSSRQ-EDDnp substrate; format: biochemical; details: peptide 20 µM, 300 ng elastase-1, Abz-FRSSRQ-EDDnp 5 µM, Tris-HCl 50 mM, pH 8, 37 °C, quadruplicate
Chain of elastase-1 (EC 3.4.21.36) (P00772 27-266): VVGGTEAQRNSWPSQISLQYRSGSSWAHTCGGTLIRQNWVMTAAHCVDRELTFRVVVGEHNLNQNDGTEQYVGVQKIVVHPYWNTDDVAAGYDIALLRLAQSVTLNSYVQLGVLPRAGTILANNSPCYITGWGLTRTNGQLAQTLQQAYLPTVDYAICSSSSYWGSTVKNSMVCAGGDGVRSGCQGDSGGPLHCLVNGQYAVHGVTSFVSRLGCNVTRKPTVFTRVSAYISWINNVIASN
Protocol: Figure 8 Inhibitory activity assay against human thrombin (panel A), trypsin (panel B), and elastase-1 (panel C). The experiments were performed in a fluorimeter (Hidex 425-301, Turku, Finland), with readings adjusted for excitation and emission at 320 and 420 nm using Abz-FRSSRQ-EDDnp as a substrate. Assays were performed in quadruplicate, in Tris-HCl 50 mM, pH 8.0 (for trypsin and elastase-1 assays), and 100 mM Tris-HCl, 20 mM NaCl, pH 7.4, for human thrombin at 37 °C, using 1.7 ng/µL of trypsin, 300 ng/µL of human thrombin, and 300 ng of elastase-1. […]
as §1, with “The evaluation of enzyme activities was performed as described above.” left out, “All reactions occurred at 37 °C using 1.7 ng of trypsin, 300 ng of human thrombin, and 300 ng of elastase-1.” left out, “The trypsin and elastase-1 assays were performed using 20 µM of each peptide, and the human thrombin assays were performed using 100 µM.” left out, “The experiments were performed in quadruplicate.” left out

Compound	Relative Hydrolysis Ratio (%) [1] [%]	Ki [2] [µM]	reduction of hydrolytic activity of thrombin [2] [%]	reduction of substrate hydrolysis by elastase-1 [3] [%]
CC(C)C[C@H](NC(=O)[C@H](CC(N)=O)NC(=O)[C@H](Cc1ccc(O)cc1)NC(=O)[C@H](CO)NC(=O)[C@H](CCC(N)=O)NC(=O)[C@H](CCCCN)NC(=O)[C@H](CS)NC(=O)CNC(=O)CNC(=O)[C@@H]1CCCN1C(=O)CNC(=O)CNC(=O)[C@H](Cc1ccc(O)cc1)NC(=O)[C@H](CC(=O)O)NC(=O)[C@H](Cc1ccccc1)NC(=O)[C@H](Cc1ccc(O)cc1)NC(=O)[C@H](Cc1ccc(O)cc1)NC(=O)CNC(=O)[C@H](CC(=O)O)NC(=O)[C@H](Cc1c[nH]c2ccccc12)NC(=O)[C@H](CC(=O)O)NC(=O)[C@H](CCCNC(=N)N)NC(=O)[C@H](CCCCN)NC(=O)[C@@H](N)CS)C(=O)N[C@@H](CCCNC(=N)N)C(=O)N[C@H](C(=O)O)[C@@H](C)O [CDR3 E] (H-CKRDWDGYYFDYGGPGGCKQSYNLRT-OH)	<0.01	55.7	100	
CC(C)C[C@H](NC(=O)[C@H](CC(N)=O)NC(=O)[C@H](Cc1ccc(O)cc1)NC(=O)[C@H](CO)NC(=O)[C@H](CCC(N)=O)NC(=O)[C@H](CCCCN)NC(=O)[C@H](CS)NC(=O)CNC(=O)[C@@H]1CCCN1C(=O)CNC(=O)CNC(=O)[C@H](Cc1ccc(O)cc1)NC(=O)[C@H](CC(=O)O)NC(=O)[C@H](Cc1ccccc1)NC(=O)[C@H](Cc1ccc(O)cc1)NC(=O)[C@H](Cc1ccc(O)cc1)NC(=O)CNC(=O)[C@H](CC(=O)O)NC(=O)[C@H](Cc1c[nH]c2ccccc12)NC(=O)[C@H](CC(=O)O)NC(=O)[C@H](CCCNC(=N)N)NC(=O)[C@H](CCCCN)NC(=O)[C@@H](N)CS)C(=O)N[C@@H](CCCNC(=N)N)C(=O)N[C@H](C(=O)O)[C@@H](C)O [CDR3 D] (H-CKRDWDGYYFDYGGPGCKQSYNLRT-OH)	<0.01			
CKQSYNLRT [CDR3 C]	<0.01			22
CKRDWDGYYFDY [CDR3 A]	<0.01	61.8	34	
